Experiments:
APTK tumors = test: Oral UA in Pink1-/- mice with s.c. APTK tumors; type: in vivo
Protocol: (FIG. 4A) Scheme of CD3+ T-cell activation and analysis for various timepoints in order to investigate mitophagy induction in vitro. (FIG. 4B) Analysis of mitochondrial membrane potential within CD8+ T cells, with TMRM^lo representing cells with low mitochondrial membrane potential. Analysis was performed six hours after stimulation with aCD/aCD28 stimulation beads at the presence of the indicated treatments. N=4 per group, *p < 0.05 by Mann Whitney U test. One of two independent experiments are shown. (FIG. 4C) Representative flow histogram and quantification of lysosome formation in CD8+ cells six hours after in vitro stimulation. MFI shown relative to DMSO controls, n=4. Data are normalised mean ± SD, statistical analysis by two-sided t-test. One out of two independent experiments are shown. (FIG. 4D) Mitotracker Red staining of in vitro stimulated CD8+ cells after 24 hours of Urolithin A (UA25 n=6; UA50 n=6) or vehicle control treatment (DMSO: n=4). A representative flow histogram depicting identification of Mitotracker^hi cells is shown. Data are mean ± SD, statistical analysis was performed by two-sided t-test (*p < 0.05; ***p <0.001; ****p < 0.0001). Experiment was repeated twice. (FIG. 4E) Subset-specific identification of Mitotracker red accumulation after 24 hours of in vitro stimulation either with vehicle control (DMSO) or 50 µM Urolithin A (n=5). Subsets were identified was depicted in the FIGS. 7-9. Data are mean ± SD, statistical analysis by two-sided t-test (* p<0.05, *** p<0.001 and **** p<0.0001). (FIG. 4F) qPCR analysis of various autophagy/mitophagy associated genes of in vitro activated CD3+ cells, 24 h after activation (n=3). Data are ± SEM, statistical analysis was performed by two-sided t-test (*p < 0.05,**p < 0.01). Overall p value is given for the comparison over the entire panel of genes after two-way ANOVA test. (FIG. 4G) Western blot of Parkin protein expression in UA or DMSO (n=3) treated cells after 24 h. Cells were stimulated at the presence of plate-bound aCD3/aCD28 antibodies. […] (FIG. 4H) CD8+ cells from Pink1^-/- mice display deficient mitophagy upon UA treatment in vitro: Lysosome formation in CD8+ of Pink1^-/- mice as assessed by Lysotracker staining 6h post stimulation at the presence of UA or DMSO (n=4). Data are mean ± SD, one out of two independent experiments are shown. (FIG. 4I) CD8+ cells from Pink1^-/- mice display deficient mitophagy upon UA treatment in vitro: Mitotracker red staining of Pink1^-/- CD8+ stimulated in vitro for 48 h, either in the presence of UA or DMSO (n=4). Percentage of Mitotracker^hi CD8+ cells are shown. Data are mean ± SD and acquired via flow cytometry. […] Quantification of TCF1^hi cells among CD8. (FIG. 4N) Quantification of PD1^hi cells among CD8. (FIG. 4O) Quantification of and Tim3^hi cells among CD8. […]

NALM-6 leukemia cells = test: Killing of NALM-6 cells by CD19-CAR T cells; type: cell-based, human; conditions: 24 h co-culture
[1] = commercially-available supplements containing urolithin A; cited from earlier work
CD19-CAR T cells = test: CD19-CAR T cell generation in presence of UA; type: cell-based, human
Pink1^-/- CD8^+ T cells = test: In vitro stimulation of Pink1-/- T cells in presence of UA; type: cell-based, Pink1^-/- mice
Protocol: (FIG. 4A) Scheme of CD3+ T-cell activation and analysis for various timepoints in order to investigate mitophagy induction in vitro. (FIG. 4B) Analysis of mitochondrial membrane potential within CD8+ T cells, with TMRM^lo representing cells with low mitochondrial membrane potential. Analysis was performed six hours after stimulation with aCD/aCD28 stimulation beads at the presence of the indicated treatments. N=4 per group, *p < 0.05 by Mann Whitney U test. One of two independent experiments are shown. (FIG. 4C) Representative flow histogram and quantification of lysosome formation in CD8+ cells six hours after in vitro stimulation. MFI shown relative to DMSO controls, n=4. Data are normalised mean ± SD, statistical analysis by two-sided t-test. One out of two independent experiments are shown. (FIG. 4D) Mitotracker Red staining of in vitro stimulated CD8+ cells after 24 hours of Urolithin A (UA25 n=6; UA50 n=6) or vehicle control treatment (DMSO: n=4). A representative flow histogram depicting identification of Mitotracker^hi cells is shown. Data are mean ± SD, statistical analysis was performed by two-sided t-test (*p < 0.05; ***p <0.001; ****p < 0.0001). Experiment was repeated twice. (FIG. 4E) Subset-specific identification of Mitotracker red accumulation after 24 hours of in vitro stimulation either with vehicle control (DMSO) or 50 µM Urolithin A (n=5). Subsets were identified was depicted in the FIGS. 7-9. Data are mean ± SD, statistical analysis by two-sided t-test (* p<0.05, *** p<0.001 and **** p<0.0001). (FIG. 4F) qPCR analysis of various autophagy/mitophagy associated genes of in vitro activated CD3+ cells, 24 h after activation (n=3). Data are ± SEM, statistical analysis was performed by two-sided t-test (*p < 0.05,**p < 0.01). Overall p value is given for the comparison over the entire panel of genes after two-way ANOVA test. (FIG. 4G) Western blot of Parkin protein expression in UA or DMSO (n=3) treated cells after 24 h. Cells were stimulated at the presence of plate-bound aCD3/aCD28 antibodies. […] (FIG. 4H) CD8+ cells from Pink1^-/- mice display deficient mitophagy upon UA treatment in vitro: Lysosome formation in CD8+ of Pink1^-/- mice as assessed by Lysotracker staining 6h post stimulation at the presence of UA or DMSO (n=4). Data are mean ± SD, one out of two independent experiments are shown. (FIG. 4I) CD8+ cells from Pink1^-/- mice display deficient mitophagy upon UA treatment in vitro: Mitotracker red staining of Pink1^-/- CD8+ stimulated in vitro for 48 h, either in the presence of UA or DMSO (n=4). Percentage of Mitotracker^hi CD8+ cells are shown. Data are mean ± SD and acquired via flow cytometry. One out of two independent experiments are shown. Statistical analysis was performed by two-sided t-test (n.s., not significant). (FIG. 4J) CD8+ cells from Pink^-/- mice fail to reprogram to TSCM after UA exposure in vitro: TSCM formation in Pink1^-/- CD8+ cells 48 h after stimulation in the presence of UA (25 µM and 50 µM) and DMSO (n=4, respectively). Data are mean ± SD, statistical analysis was performed by two-sided t-test (***p <0.001). Data depicts results of three independent experiments. (FIG. 4K) Expression of TCF1 in naïve-like CD62L^+CD44^-CD8^+ Pink1^-/- cells. Data are ± SD, depicted as MFI (***p <0.001 by two-sided t-test). (FIG. 4L) Growth curve of Pink1^-/- mice s.c. injected with APTK-organoids, fed UA-rich or control diet as depicted in FIG. 1J. n=4 per group. Data are mean ± SD. (FIG. 4M) Flow cytometry analysis of TIL in Pink ^-^/- mice s.c. transplanted with APTK tumors, fed either UA or control diet. Quantification of TCF1^hi cells among CD8. (FIG. 4N) Quantification of PD1^hi cells among CD8. (FIG. 4O) Quantification of and Tim3^hi cells among CD8. (FIG. 4P) Ex vivo cytokine release assay. TIL of Pink1^-/- from FIG. 4L were stimulated ex vivo with PMA and lonomycin, in the presence of Brefeldin A for three hours. Data depicts percentage of TNFα^hi cells within the CD8+ compartment. All data are mean ± SD (n=4). […]

O=c1oc2cc(O)ccc2c2ccc(O)cc12 [Urolithin A]
ex vivo cytokine release of CD8+ TIL (APTK tumors; PMA and Ionomycin restimulation): did not exhibit differences
TCF-1 expression in CD8+ TIL (APTK tumors; UA or control diet): did not exhibit differences
exhaustion markers in CD8+ TIL (APTK tumors; UA or control diet): did not exhibit differences
tumor suppressive effect of UA (growth curve) (APTK tumors; UA-rich or control diet): abrogated the tumor suppressive effect of UA
CD19 CAR-T cell mediated killing of NALM-6 leukemia cells (NALM-6 leukemia cells): did not have a negative impact
bioavailability profile [1]: favourable bioavailability profile
safety [1]: deemed safe
gene delivery into CD8+ cells (CD19-CAR T cells): did not impair gene delivery
markers of exhaustion (CD19-CAR T cells; UA supplementation): not affected
CAR expressing TSCM cells among CD8+ cells (CD19-CAR T cells; three days post transduction, upon UA exposure): about 60%
TCF-1 in CD44-CD62L+CD8+ T cells (Pink1^-/- CD8^+ T cells): expressed less TCF-1
cytoplasmic expression of Pgam5 (Pink1^-/- CD8^+ T cells; 6 h, upon UA exposure): lack of cytoplasmic expression of Pgam5
UA-induced lysosome formation (Pink1^-/- CD8^+ T cells; 6h post stimulation): prevented
PGC-1α expression (Pink1^-/- CD8^+ T cells; 48 h): failed to enhance
UA-induced decrease in mitochondrial content (Pink1^-/- CD8^+ T cells; 48 h): prevented
TSCM phenotype (Pink1^-/- CD8^+ T cells; 48 h, UA 25 µM and 50 µM): failed to exhibit a TSCM phenotype
